These results are taken from ChEMBL document CHEMBL1130839, “Synthesis and pharmacological activities of 13-dehydro derivatives of primary prostaglandins” (Bioorg Med Chem Lett, 1998).

Common to all, as to assay type: functional
The species entered for assay [1] is Cavia porcellus. In words: Compound was tested for contraction of guinea-pig ileum. The note with it: read-out: ED50 (the source's name).
For the next assay, the species on record is Homo sapiens. Nature of the assay: Compound was tested for inhibition of ADP-induced human platelet aggregation.
The species entered for assay [2] is Cavia porcellus. In words: Compound was tested for relaxation of guinea-pig trachea precontracted in histamine.
For assay [3], the species on record is Cavia porcellus. Nature of the assay: Compound was tested for relaxation of guinea-pig trachea precontracted with histamine.
The species named for assay [4] is Cavia porcellus. Nature of the assay: Compound was tested for […] PGE2-induced relaxation of guinea-pig trachea precontracted with carbachol.
The next assay is filed under the species Rattus norvegicus. Nature of the assay: Compound was tested for contraction of rat isolated uterine. The note with it: read-out: ED50 (the source's name).

Turning to `CC/C=C\C[C@H](O)C#C[C@H]1[C@H](O)CC(=O)[C@@H]1C/C=C\CCCC(=O)O`, in the assay listed under Cavia porcellus [1], the EC50 was 260 nM. The IC50 in the assay listed under Homo sapiens is 2600 nM; in the assay filed under Cavia porcellus [2], 5400 nM.
For `CCCCC[C@H](O)C#C[C@H]1[C@H](O)CC(=O)[C@@H]1CCCCCCC(=O)O`, the EC50 in the assay filed under Cavia porcellus [1] came to 0.23 nM. For the same molecule, the IC50 in the assay filed under Homo sapiens is 3000 nM; in the assay filed under Cavia porcellus [3], 8900 nM.
On to `CCCCC[C@H](O)C#C[C@H]1[C@H](O)CC(=O)[C@@H]1C/C=C\CCCC(=O)O`, for which, in the assay filed under Cavia porcellus [1], the EC50 was found to be 0.18 nM. In addition, the figures for the half-maximal inhibitory concentration (IC50) in the assay listed under Homo sapiens and in the assay filed under Cavia porcellus [4] were 3.4 nM and 2.6 nM, respectively.
Take `CCCCC[C@H](O)C#C[C@@H]1[C@@H](CCCCCCC(=O)O)[C@@H](O)C[C@H]1O`: the EC50 turned out to be 1000 nM in the assay listed under Rattus norvegicus and 20 nM in the assay listed under Cavia porcellus [1].
